14 compounds from patent US12440496B2, “Natriuretic peptide receptor a agonists useful for the treatment of cardiometabolic diseases, kidney disease and diabetes” (Merck Sharp & Dohme LLC, priority 2019, dated 2025) can be followed below.

Where a name gives a salt, the structure may show the parent alone.

As a reminder, the EC50 is the concentration that produces a half-maximal response.

In the assay the target is T1, hNPRA (Homo sapiens, UniProt P16066).
T1 construct: expressed in transfected cells
T1 sequence (P16066 33-1061): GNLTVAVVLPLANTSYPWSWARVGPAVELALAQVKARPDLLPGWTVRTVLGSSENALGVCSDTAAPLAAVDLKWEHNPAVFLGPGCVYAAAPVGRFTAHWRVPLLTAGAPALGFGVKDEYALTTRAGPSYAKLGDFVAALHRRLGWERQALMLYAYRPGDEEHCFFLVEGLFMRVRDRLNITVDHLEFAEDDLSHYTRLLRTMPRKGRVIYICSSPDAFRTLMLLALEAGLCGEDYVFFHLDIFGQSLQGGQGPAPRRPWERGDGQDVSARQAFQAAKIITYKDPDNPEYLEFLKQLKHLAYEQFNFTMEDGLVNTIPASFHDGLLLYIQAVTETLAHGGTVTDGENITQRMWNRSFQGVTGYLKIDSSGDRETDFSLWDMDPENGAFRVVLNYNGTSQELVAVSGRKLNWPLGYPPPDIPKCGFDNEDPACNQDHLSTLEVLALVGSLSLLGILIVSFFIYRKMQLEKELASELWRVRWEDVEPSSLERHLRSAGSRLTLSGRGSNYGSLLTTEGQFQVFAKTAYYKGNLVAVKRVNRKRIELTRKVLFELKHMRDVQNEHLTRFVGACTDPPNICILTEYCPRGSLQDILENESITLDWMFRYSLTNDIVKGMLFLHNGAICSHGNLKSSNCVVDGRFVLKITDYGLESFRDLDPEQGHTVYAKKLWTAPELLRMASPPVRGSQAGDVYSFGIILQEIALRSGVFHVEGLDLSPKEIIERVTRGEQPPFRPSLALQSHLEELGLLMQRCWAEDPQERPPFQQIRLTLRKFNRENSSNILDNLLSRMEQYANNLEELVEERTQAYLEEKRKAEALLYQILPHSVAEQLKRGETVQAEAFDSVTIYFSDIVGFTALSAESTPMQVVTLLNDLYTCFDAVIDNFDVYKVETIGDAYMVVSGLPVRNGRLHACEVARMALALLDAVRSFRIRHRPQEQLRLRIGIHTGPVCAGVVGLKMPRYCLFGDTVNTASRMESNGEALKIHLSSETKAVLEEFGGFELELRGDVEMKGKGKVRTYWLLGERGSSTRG
The experiment in a line: NPRA Functional Cell Assay (cGMP HTRF, NPRA HEK JumpIn stable cells). Format: cell-based. The settings on record: cGMP production, 1 hour at 37° C., 10-point dose response. An excerpt: NPRA Functional Cell Assay
Assay Buffer components HEPES and Opti-MEM® I Reduced-Serum with Glutamine (no phenol red) were from Gibco/Invitrogen (Thermo Fisher Scientific, Waltham, MA USA). 3-Isobutyl-1-methylxanthine (IBMX) and 4-(3-Butoxy-4-methoxybenzyl) imidazolidin-2-one (RO20) were obtained from Sigma-Aldrich (St. Louis, MO, USA). DPBS (Dulbecco's phosphate-buffered saline) without Ca2+ and Mg2+ was purchased from GE Healthcare Bio-Sciences (Pittsburgh, PA, USA). 384 well white Optiplates were from Perkin Elmer (Atlantic Highlands, NJ, USA). Human ANP (Atrial Natriuretic Peptide) (1-28) was purchased from Sigma-Aldrich (Catalog #A1663) and rat ANP (1-28) from Bachem (Torrance, CA, USA) (Catalog #H2100). Human-BNP (Human-Brain Natriuretic Peptide) (1-32 AA) was purchased from American Peptide Company (Sunnyvale, CA, USA) (product No. 14-1-90). cGMP kits were purchased from Cisbio. The assay ready frozen (ARF) Human/rat/dog NPRA HEK JumpIn Stable frozen cells (low passage number 5-11) were prepared in-house.
Test compounds were titrated in DMSO in a 10-point dose response in a separate step followed by a 100-fold dilution into the reaction. Positive response for each assay was determined using 10 nM rat-ANP peptide (rat cells) or 50 nM h-ANP peptide (human and dog cells).
Cells were thawed, washed with DPBS and resuspended in assay buffer (Opti-MEM+Glutamine, phenol red free media, 10 mM HEPES, 100 uM IBMX and 100 uM RO20) that was warmed to 37° C. Cells were then transferred to microplates via a Microplate Combi dispenser at a density of 1500, 400 and 1200 cells/well for human, rat and dog cells respectively, followed by acoustic transfer (Echo) of compound.
Compounds and cells were incubated at 37° C. with 5% CO2 for 1 hour, after which the cells were lysed and cGMP was captured using a CisBio cGMP HTRF assay kit. The TRF signal was measured with an Envision plate reader (emission set to 615 and 665 nm) after 1 hour incubation at ambient temperature. The TRF signal was converted to [cGMP] through the use of a cGMP calibration curve on each microplate. EC50's were generated from the resulting dose response curves by use of a 4 parameter logistic algorithm.
Assay Buffer components HEPES and Opti-MEM® I Reduced-Serum with Glutamine (no phenol red) were from Gibco/Invitrogen. 3-Isobutyl-1-methylxanthine (IBMX) and 4-(3-Butoxy-4-methoxybenzyl) imidazolidin-2-one (RO20) were obtained from Sigma. DPBS (Dulbecco's phosphate-buffered saline) without Ca2+ and Mg2+ was purchased from GE Healthcare Bio-Sciences (Pittsburgh, PA, USA). 384 well white Optiplates were from Perkin Elmer (Atlantic Highlands, NJ, USA). Human ANP (1-28) was purchased from Sigma (A1663) and rat ANP (1-28) from Bachem (H2100). Human-BNP (1-32 AA) was purchased from American Peptide Company (Sunnyvale, CA, USA) (product No. 14-1-90). cGMP kits were purchased from Cisbio (Bedford, MA, USA). The assay ready frozen (ARF) Human/rat/dog NPRA HEK JumpIn Stable frozen cells (low passage number 5-11) were prepared in-house.
Compounds and cells were incubated at 37° C. with 5% CO2 for 1 hour, after which the cells were lysed and cGMP was captured using a CisBio cGMP HTRF assay kit. The TRF signal was measured with an Envision® plate reader (Perkin Elmer) (emission set to 615 and 665 nm) after 1 hour incubation at ambient temperature. The TRF signal was converted to [cGMP] through the use of a cGMP calibration curve on each microplate. EC50's were generated from the resulting dose response curves by use of a 4 parameter logistic algorithm.
hNPRA EC50 (nM) were determined for the compounds of Example 1 through Example 273 and are reported in the Experimental section of this application.
On the technique in general: In TR-FRET formats the signal depends on donor and acceptor labels being close together.
Consider `CN(C)S(=O)(=O)Nc1cccc([C@@H](CCN2CCC(O)CC2)NC(=O)c2nc3cc4c(nc3s2)CC[C@H](C(C)(C)C)C4)c1` (mixture of isomers) [Example 216, (7S)-7-tert-butyl-N-[rac-(1R)-1-[3-(dimethylsulfamoylamino)phenyl]-3-(4-hydroxypiperidin-1-ium-1-yl)propyl]-5,6,7,8-tetrahydrothiazolo[5,4-b]quinoline-2-carboxamide; formate], for which the half-maximal effective concentration (EC50) stood at 1980 nM. To `CC(C)(C)[C@H]1CCc2nc3sc(C(=O)N[C@H](CCN4CCCCC4)c4ccc(-c5ccc(O)nc5)cc4)cc3cc2C1` (racemic) [Example 1, ammonium;5-[4-[rac-(1R)-3-(1-piperidyl)-1-[[rac-(6S)-6-tert-butyl-5,6,7,8-tetrahydrothieno[2,3-b]quinoline-2-carbonyl]amino]propyl]phenyl]yridine-2-olate] belongs 233 nM; to `CC(C)(C)[C@H]1CCc2nc3sc(C(=O)N[C@H](CCN4CCCCC4)c4ccc(-c5cnc(=O)[nH]c5)cc4)cc3cc2C1` (racemic) [Example 2, rac-(6S)-6-tert-butyl-N-[rac-(1R)-1-[4-(2-oxo-1H-pyrimidin-5-yl)phenyl]-3-(1-piperidyl)propyl]-5,6,7,8-tetrahydrothieno[2,3-b]quinoline-2-carboxamide], 518 nM; to `CC(C)(C)[C@H]1CCc2nc3sc(C(=O)N[C@H](CCN4CCCCC4)c4ccc(-c5ccoc5)cc4)cc3cc2C1` (racemic) [Example 3, rac-(6S)-6-tert-butyl-N-[rac-(1R)-1-[4-(3-furyl)phenyl]-3-(1-piperidyl)propyl]-5,6,7,8-tetrahydrothieno[2,3-b]quinoline-2-carboxamide], 675 nM. To `Cn1nccc1-c1ccc([C@@H](CCN2CCCCC2)NC(=O)c2cc3cc4c(nc3s2)CC[C@H](C(C)(C)C)C4)cc1` (racemic) [Example 4, rac-(6S)-6-tert-butyl-N-[rac-(1R)-1-[4-(2-methylpyrazol-3-yl)phenyl]-3-(1-piperidyl)propyl]-5,6,7,8-tetrahydrothieno[2,3-b]quinoline-2-carboxamide] belongs 753 nM; to `CC(C)(C)[C@H]1CCc2nc3sc(C(=O)N[C@H](CCN4CCCCC4)c4ccc(-c5cn[nH]c5)cc4)cc3cc2C1` (racemic) [Example 5, rac-(6S)-6-tert-butyl-N-[rac-(1R)-3-(1-piperidy])-1-[4-(1H-pyrazol-4-yl)phenyl]propyl]-5,6,7,8-tetrahydrothieno[2,3-b]quinoline-2-carboxamide], 777 nM.

`CC(C)(C)[C@H]1CCc2nc3sc(C(=O)N[C@H](CCN4CCCCC4)c4ccc(-c5csc(C(=O)O)c5)cc4)cc3cc2C1` (racemic) [Example 6, ammonium;4-[4-[rac-(1R)-3-(1-piperidyl)-1-[rac-(6S)-6-tert-butyl-5,6,7,8-tetrahydrothieno[2,3-b]quinoline-2-carbonyl]amino]propyl] phenyl]thiophene-2-carboxylate] had an EC50 of 877 nM. Compound `CC(C)(C)[C@H]1CCc2nc3sc(C(=O)N[C@H](CCN4CCCCC4)c4ccc(-c5cncnc5)cc4)cc3cc2C1` (racemic) [Example 7, rac-(6S)-6-tert-butyl-N-[rac-(1R)-3-(1-piperidyl)-1-(4-pyrimidin-5-ylphenyl)propyl]-5,6,7,8-tetrahydrothieno[2,3-b]quinoline-2-carboxamide] showed an EC50 of 2000 nM. As for `CC(C)(C)[C@H]1CCc2nc3sc(C(=O)N[C@H](CCN4CCC(O)CC4)c4cccc(NS(C)(=O)=O)c4)cc3cc2C1` (racemic) [Example 8, ammonium; methylsulfonyl-[3-[rac-(1R)-3-(4-hydroxy-1-piperidyl)-1-[rac-(6S)-6-tert-butyl-5,6,7,8-tetrahydrothieno[2,3-b]quinoline-2-carbonyl]amino]propyl]phenyl] azanide], the figure is 453 nM. `CN(C)CC[C@@H](NC(=O)c1cc2cc3c(nc2s1)CC[C@H](C(C)(C)C)C3)c1cccc(NS(C)(=O)=O)c1` (racemic) [Example 9, ammonium; methylsulfonyl-[3-[rac-(1R)-3-(dimethylamino)-1-[rac-(6S)-6-tert-butyl-5,6,7,8-tetrahydrothieno[2,3-b]quinoline-2-carbonyl]amino]propyl]phenyl] azanide] showed an EC50 of 708 nM. As for `CC(C)(C)[C@H]1CCc2nc3sc(C(=O)N[C@H](CCNC4CCOCC4)c4cccc(NS(C)(=O)=O)c4)cc3cc2C1` (racemic) [Example 10, ammonium; methylsulfonyl-[3-[rac-(1R)-1-[[rac-(6S)-6-tert-butyl-5,6,7,8-tetrahydrothieno[2,3-b]quinoline-2-carbonyl]amino]-3-(tetrahydro-pyran-4-ylamino)propyl]phenyl]azanide], the figure is 710 nM. To `CC(C)(C)[C@H]1CCc2nc3sc(C(=O)N[C@H](CCN4CCCCC4)c4cccc(NS(C)(=O)=O)c4)cc3cc2C1` (racemic) [Example 11, ammonium; methylsulfonyl-[3-[rac-(1R)-3-(1-piperidyl)-1-[rac-(6S)-6-tert-butyl-5,6,7,8-tetrahydrothieno[2,3-b]quinoline-2-carbonyl]amino]propyl]phenyl] azanide] belongs 718 nM. To `CC(C)(C)[C@H]1CCc2nc3sc(C(=O)N[C@H](CCN4CCCC(O)C4)c4cccc(NS(C)(=O)=O)c4)cc3cc2C1` (mixture of isomers) [Example 12, ammonium; methylsulfonyl-[3-[rac-(1R)-3-(3-hydroxy-1-piperidyl)-1-[[rac-(6S)-6-tert-butyl-5,6,7,8-tetrahydrothieno[2,3-b]quinoline-2-carbonyl]amino]propyl]phenyl] azanide] belongs 790 nM; to `CC(C)(C)[C@H]1CCc2nc3sc(C(=O)N[C@H](CCN4CCCC5(CC5)C4)c4cccc(NS(C)(=O)=O)c4)cc3cc2C1` (racemic) [Example 13, ammonium; methylsulfonyl-[3-[rac-(1R)-3-(5-azaspiro[2.5]octan-5-yl)-1-[[rac-(6S)-6-tert-butyl-5,6,7,8-tetrahydrothieno[2,3-b]quinoline-2-carbonyl]amino]propyl]phenyl] azanide], 809 nM.
